Assay results from ChEMBL document CHEMBL3734705, “Synthesis and in vitro cytotoxicity of novel C-12 substituted-14-deoxy-andrographolide derivatives as potent anti-cancer agents” (2015).

Tests used:
NCI-H23 [1] = experiment: Cytotoxicity against human NCI-H23 cells assessed as growth level at 10 uM after 48 hrs by SRB assay; format: functional
[2] = Cytotoxicity against human HOP62 cells assessed as growth inhibition at 10 uM after 48 hrs by SRB assay; format: functional; conditions: HOP-62, 48 h, read-out: GI
NCI-H522 [3] = experiment: Cytotoxicity against human NCI-H522 cells assessed as growth level at 10 uM after 48 hrs by SRB assay; format: functional
Malme-3M = experiment: Cytotoxicity against human MALME-3M cells assessed as growth inhibition at 10 uM after 48 hrs by SRB assay; format: functional; conditions: read-out: GI
[4] = Cytotoxicity against human SNB75 cells assessed as growth inhibition at 10 uM after 48 hrs by SRB assay; format: functional; conditions: SNB-75, 48 h, read-out: GI
[5] = Cytotoxicity against human DU145 cells assessed as growth inhibition at 10 uM after 48 hrs by SRB assay; format: functional; conditions: DU-145, 48 h, read-out: GI
[6] = Cytotoxicity against human HOP62 cells assessed as growth level at 10 uM after 48 hrs by SRB assay; format: functional, HOP-62
[7] = Cytotoxicity against human HL-60(TB) cells assessed as growth inhibition at 10 uM after 48 hrs by SRB assay; format: functional; conditions: HL-60, 48 h, read-out: GI
NCI-H522 [8] = experiment: Cytotoxicity against human NCI-H522 cells assessed as growth inhibition at 10 uM after 48 hrs by SRB assay; format: functional; conditions: NCI-H522, 48 h, read-out: GI
[9] = Cytotoxicity against human RXF393 cells assessed as growth level at 10 uM after 48 hrs by SRB assay; format: functional, RXF 393
SK-MEL-5 [10] = experiment: Cytotoxicity against human SK-MEL-5 cells assessed as growth inhibition at 10 uM after 48 hrs by SRB assay; format: functional; conditions: SK-MEL-5, 48 h, read-out: GI
NCI-H23 [11] = experiment: Cytotoxicity against human NCI-H23 cells assessed as growth inhibition at 10 uM after 48 hrs by SRB assay; format: functional; conditions: NCI-H23, 48 h, read-out: GI
[12] = Cytotoxicity against human SW620 cells assessed as growth level at 10 uM after 48 hrs by SRB assay; format: functional, SW-620
[13] = Cytotoxicity against human RPMI8226 cells assessed as growth level at 10 uM after 48 hrs by SRB assay; format: functional, RPMI-8226
[14] = Cytotoxicity against human DU145 cells assessed as growth level at 10 uM after 48 hrs by SRB assay; format: functional, DU-145
SN12C = experiment: Cytotoxicity against human SN12C cells assessed as growth level at 10 uM after 48 hrs by SRB assay; format: functional
[15] = Cytotoxicity against human OVCAR5 cells assessed as growth level at 10 uM after 48 hrs by SRB assay; format: functional, OVCAR-5
[16] = Cytotoxicity against human SF539 cells assessed as growth level at 10 uM after 48 hrs by SRB assay; format: functional, SF-539
SK-MEL-5 [17] = experiment: Cytotoxicity against human SK-MEL-5 cells assessed as growth level at 10 uM after 48 hrs by SRB assay; format: functional
[18] = Cytotoxicity against human UACC257 cells assessed as growth inhibition at 10 uM after 48 hrs by SRB assay; format: functional; conditions: UACC-257, 48 h, read-out: GI
[19] = Cytotoxicity against human BT549 cells assessed as growth inhibition at 10 uM after 48 hrs by SRB assay; format: functional; conditions: BT-549, 48 h, read-out: GI
[20] = Cytotoxicity against human MOLT4 cells assessed as growth level at 10 uM after 48 hrs by SRB assay; format: functional, MOLT-4
MCF7 = experiment: Cytotoxicity against human MCF7 cells assessed as growth inhibition at 10 uM after 48 hrs by SRB assay; format: functional; conditions: MCF7, 48 h, read-out: GI
HT-29 = experiment: Cytotoxicity against human HT-29 cells assessed as growth level at 10 uM after 48 hrs by SRB assay; format: functional
T47D [21] = experiment: Cytotoxicity against human T47D cells assessed as growth inhibition at 10 uM after 48 hrs by SRB assay; format: functional; conditions: read-out: GI
[22] = Cytotoxicity against human HCT15 cells assessed as growth level at 10 uM after 48 hrs by SRB assay; format: functional, HCT-15
[23] = Cytotoxicity against human Hs578T cells assessed as growth level at 10 uM after 48 hrs by SRB assay; format: functional, Hs-578T
CCRF-CEM = experiment: Cytotoxicity against human CCRF-CEM cells assessed as growth level at 10 uM after 48 hrs by SRB assay; format: functional
NCI-H460 = experiment: Cytotoxicity against human NCI-H460 cells assessed as growth level at 10 uM after 48 hrs by SRB assay; format: functional
[24] = Cytotoxicity against human SNB75 cells assessed as growth level at 10 uM after 48 hrs by SRB assay; format: functional, SNB-75
[25] = Cytotoxicity against human RXF393 cells assessed as growth inhibition at 10 uM after 48 hrs by SRB assay; format: functional; conditions: RXF 393, 48 h, read-out: GI
SR = experiment: Cytotoxicity against human SR cells assessed as growth level at 10 uM after 48 hrs by SRB assay; format: functional
[26] = Cytotoxicity against human IGROV1 cells assessed as growth level at 10 uM after 48 hrs by SRB assay; format: functional, IGROV-1
KM12 = experiment: Cytotoxicity against human KM12 cells assessed as growth inhibition at 10 uM after 48 hrs by SRB assay; format: functional; conditions: KM12, 48 h, read-out: GI
U-251 = experiment: Cytotoxicity against human U251 cells assessed as growth inhibition at 10 uM after 48 hrs by SRB assay; format: functional; conditions: U-251, 48 h, read-out: GI
T47D [27] = experiment: Cytotoxicity against human T47D cells assessed as growth level at 10 uM after 48 hrs by SRB assay; format: functional
[28] = Cytotoxicity against human HCC2998 cells assessed as growth inhibition at 10 uM after 48 hrs by SRB assay; format: functional; conditions: HCC 2998, 48 h, read-out: GI
[29] = Cytotoxicity against human HL-60(TB) cells assessed as growth level at 10 uM after 48 hrs by SRB assay; format: functional
[30] = Cytotoxicity against human LOXIMVI cells assessed as growth level at 10 uM after 48 hrs by SRB assay; format: functional, LOX IMVI
[31] = Cytotoxicity against human SKOV3 cells assessed as growth level at 10 uM after 48 hrs by SRB assay; format: functional, SK-OV-3
[32] = Cytotoxicity against human COLO205 cells assessed as growth inhibition at 10 uM after 48 hrs by SRB assay; format: functional; conditions: COLO 205, 48 h, read-out: GI
[33] = Cytotoxicity against human HCC2998 cells assessed as growth level at 10 uM after 48 hrs by SRB assay; format: functional, HCC 2998
[34] = Cytotoxicity against human Caki1 cells assessed as growth inhibition at 10 uM after 48 hrs by SRB assay; format: functional; conditions: CAKI-1, 48 h, read-out: GI
[35] = Cytotoxicity against human PC3 cells assessed as growth level at 10 uM after 48 hrs by SRB assay; format: functional, PC-3
[36] = Cytotoxicity against human Hs578T cells assessed as growth inhibition at 10 uM after 48 hrs by SRB assay; format: functional; conditions: Hs-578T, read-out: GI

C=C1CC[C@@H]2[C@](C)(COC(C)=O)[C@H](OC(C)=O)CC[C@@]2(C)[C@@H]1C/C=C1/C(=O)OC[C@H]1OC(C)=O
Activity (NCI-H23 [1]): 80.92% | inhibition of growth at 10 µM [2]: 24.2% | Activity (NCI-H522 [3]): -41.64% | inhibition of growth at 10 µM (Malme-3M): 22.3% | inhibition of growth at 10 µM [4]: 55.1% | inhibition of growth at 10 µM [5]: 49.1% | Activity [6]: 75.75% | inhibition of growth at 10 µM [7]: 20.9% | inhibition of growth at 10 µM (NCI-H522 [8]): 41.6% | Activity [9]: -7.35% | inhibition of growth at 10 µM (SK-MEL-5 [10]): 43.8% | inhibition of growth at 10 µM (NCI-H23 [11]): 19.1% | Activity [12]: -21.85% | Activity [13]: 14.12% | Activity [14]: 50.88% | Activity (SN12C): 33.42% | Activity [15]: 53.7% | Activity [16]: 8.54% | Activity (SK-MEL-5 [17]): 56.18% | inhibition of growth at 10 µM [18]: 33.5% | inhibition of growth at 10 µM [19]: 72.6% | Activity [20]: -6.05% | inhibition of growth at 10 µM (MCF7): 77.1% | Activity (HT-29): -39.4% | inhibition of growth at 10 µM (T47D [21]): 57.2% | Activity [22]: -23.04% | Activity [23]: 100.18% | Activity (CCRF-CEM): -11.4% | Activity (NCI-H460): 98.04% | Activity [24]: 44.87% | inhibition of growth at 10 µM [25]: 7.35% | Activity (SR): 5.73% | Activity [26]: 102.65% | inhibition of growth at 10 µM (KM12): 47.2% | inhibition of growth at 10 µM (U-251): 46% | Activity (T47D [27]): 42.77% | inhibition of growth at 10 µM [28]: 32.7% | Activity [29]: 79.11% | Activity [30]: -74.4% | Activity [31]: 101.37% | inhibition of growth at 10 µM [32]: 78% | Activity [33]: 67.32% | inhibition of growth at 10 µM [34]: 18.5% | Activity [35]: 88.46%

C=C1CC[C@@H]2[C@](C)(COC(C)=O)[C@H](OC(C)=O)CC[C@@]2(C)[C@@H]1CC(NCCCC)C1=CCOC1=O (mixture of isomers)
Activity (NCI-H23 [1]): 89.71% | inhibition of growth at 10 µM [2]: 6.04% | Activity (NCI-H522 [3]): 79.13% | inhibition of growth at 10 µM [36]: 2.32% | inhibition of growth at 10 µM (Malme-3M): 2.43% | inhibition of growth at 10 µM [4]: 22.1% | inhibition of growth at 10 µM [5]: 0.82% | Activity [6]: 93.96% | inhibition of growth at 10 µM [7]: 6.18% | inhibition of growth at 10 µM (NCI-H522 [8]): 20.9% | Activity [9]: 104.19% | inhibition of growth at 10 µM (SK-MEL-5 [10]): 24% | inhibition of growth at 10 µM (NCI-H23 [11]): 10.3% | Activity [12]: 95.01% | Activity [13]: 60.49% | Activity [14]: 99.18% | Activity (SN12C): 89.83% | Activity [15]: 95.04% | Activity [16]: 90.54% | Activity (SK-MEL-5 [17]): 76.02% | inhibition of growth at 10 µM [18]: 14.8% | inhibition of growth at 10 µM [19]: 10.8% | Activity [20]: 55.54% | inhibition of growth at 10 µM (MCF7): 17.1% | Activity (HT-29): 82.56% | inhibition of growth at 10 µM (T47D [21]): 28% | Activity [22]: 96.89% | Activity [23]: 97.68% | Activity (CCRF-CEM): 80.69% | Activity (NCI-H460): 91.62% | Activity [24]: 77.87% | Activity (SR): 48.54% | Activity [26]: 80.01% | inhibition of growth at 10 µM (KM12): 7.21% | inhibition of growth at 10 µM (U-251): 13.2% | Activity (T47D [27]): 71.96% | inhibition of growth at 10 µM [28]: 7.9% | Activity [29]: 93.82% | Activity [30]: 90.39% | Activity [31]: 92.42% | inhibition of growth at 10 µM [32]: 17.9% | Activity [33]: 92.1% | inhibition of growth at 10 µM [34]: 9.05% | Activity [35]: 51.19%

C=C1CC[C@@H]2[C@](C)(COC(C)=O)[C@H](OC(C)=O)CC[C@@]2(C)[C@@H]1CC(NCc1ccccc1)C1=CCOC1=O (mixture of isomers)
Activity (NCI-H23 [1]): 57.36% | inhibition of growth at 10 µM [2]: 11% | inhibition of growth at 10 µM [36]: 13.6% | inhibition of growth at 10 µM (Malme-3M): 22.9% | inhibition of growth at 10 µM [4]: 23.1% | inhibition of growth at 10 µM [5]: 32.8% | Activity [6]: 89.01% | inhibition of growth at 10 µM [7]: 9.93% | Activity [9]: 74.33% | inhibition of growth at 10 µM (NCI-H23 [11]): 42.6% | Activity [12]: 47.31% | Activity [13]: 3.18% | Activity [14]: 67.16% | Activity (SN12C): 58.19% | Activity [15]: 101.59% | Activity [16]: 79.48% | inhibition of growth at 10 µM [18]: 67.2% | inhibition of growth at 10 µM [19]: 71.9% | Activity [20]: -3.86% | inhibition of growth at 10 µM (MCF7): 70.2% | inhibition of growth at 10 µM (T47D [21]): 85.8% | Activity [22]: 40.99% | Activity [23]: 86.43% | Activity (CCRF-CEM): 20.9% | Activity (NCI-H460): 48.43% | Activity [24]: 76.94% | inhibition of growth at 10 µM [25]: 25.7% | Activity (SR): 20.89% | Activity [26]: 62.9% | inhibition of growth at 10 µM (KM12): 60.9% | inhibition of growth at 10 µM (U-251): 52.4% | Activity (T47D [27]): 14.23% | inhibition of growth at 10 µM [28]: 6.31% | Activity [29]: -9.93% | Activity [30]: 44.58% | Activity [31]: 79.25% | inhibition of growth at 10 µM [32]: 54.4% | Activity [33]: 93.69% | inhibition of growth at 10 µM [34]: 50.4% | Activity [35]: 10.07%
